Assay results: patent US10620222B2, “Electrified compositions for determining the risk of developing adolescent idiopathic scoliosis through the use of GI protein receptor” (CHU Sainte-Justine, priority 2008, dated 2020)
Values joined by “and” are separate entries in the source; they are usually repeats but may differ in a detail not shown here. Equal values may be shown once.

Tested on: receptors coupled to Gi proteins expressed on osteoblasts
Assay: Cellular Dielectric Spectroscopy (CDS, CELLKEY) response to Gi-coupled receptor ligands in osteoblasts from control and AIS subjects
Type: cell-based, human
Design: % of control / % of control signal, Group 1, min diff. / % of control signal, Group 2, min diff. / % of control signal, Group 3, min diff.: concentration or dose not given beside the values; dZiec value / Absolute dZiec, control value of max diff. (maximal control value): unit not given here
Details: for dZiec value / Absolute dZiec, control value of max diff. (maximal control value) / Absolute dZiec, control value of min diff. (minimal control value) / Absolute dZiec, Group 1, max diff. (group value) / Absolute dZiec, Group 1, min diff. (group value) / Absolute dZiec, Group 2, max diff. (group value) / Absolute dZiec, Group 2, min diff. (group value) / Absolute dZiec, Group 3, max diff. (group value) / Absolute dZiec, Group 3, min diff. (group value): 300 μM ligand; for dZiec value: n1, n2 of Exper. 1-3; for Absolute dZiec, control value of max diff. (maximal control value) / Absolute dZiec, control value of min diff. (minimal control value): osteoblasts of control subjects; for Absolute dZiec, control value of max diff. (maximal control value) / Absolute dZiec, control value of min diff. (minimal control value) / Absolute dZiec, Group 1, max diff. (group value) / Absolute dZiec, Group 1, min diff. (group value) / Absolute dZiec, Group 2, max diff. (group value) / Absolute dZiec, Group 2, min diff. (group value) / Absolute dZiec, Group 3, max diff. (group value) / Absolute dZiec, Group 3, min diff. (group value): from FIGS. 11A-11F; for Absolute dZiec, Group 1, max diff. (group value) / Absolute dZiec, Group 1, min diff. (group value) / % of control signal, Group 1, max diff. / % of control signal, Group 1, min diff. / Absolute dZiec, Group 2, max diff. (group value) / Absolute dZiec, Group 2, min diff. (group value) / % of control signal, Group 2, max diff. / % of control signal, Group 2, min diff. / Absolute dZiec, Group 3, max diff. (group value) / Absolute dZiec, Group 3, min diff. (group value) / % of control signal, Group 3, max diff. / % of control signal, Group 3, min diff.: osteoblasts; for Absolute dZiec, Group 1, max diff. (group value): AIS Group 1 value of max diff.; for Absolute dZiec, Group 1, min diff. (group value): AIS Group 1 value of min diff.; for % of control signal, Group 1, max diff.: AIS Group 1 vs maximal control value; for % of control signal, Group 1, min diff.: AIS Group 1 vs minimal control value; for Absolute dZiec, Group 2, max diff. (group value): AIS Group 2 value of max diff.; for Absolute dZiec, Group 2, min diff. (group value): AIS Group 2 value of min diff.; for % of control signal, Group 2, max diff.: AIS Group 2 vs maximal control value; for % of control signal, Group 2, min diff.: AIS Group 2 vs minimal control value; for Absolute dZiec, Group 3, max diff. (group value): AIS Group 3 value of max diff.; for Absolute dZiec, Group 3, min diff. (group value): AIS Group 3 value of min diff.; for % of control signal, Group 3, max diff.: AIS Group 3 vs maximal control value; for % of control signal, Group 3, min diff.: AIS Group 3 vs minimal control value
Description: Bone specimens were obtained intraoperatively from vertebras (varying from T3 to L4 according to the surgical procedure performed), while with trauma cases used as non-scoliotic controls bone specimens were obtained from other anatomical sites (tibia or femur, and in one case from an iliac crest biopsy). Osteoblasts and myoblasts isolated as previously described (Moreau A, Wang D S, Forget S et al. Melatonin Signaling Dysfunction in Adolescent Idiopathic Scoliosis. Spine 2004; 29:1772-81; Azeddine et al., 2007 Molecular determinants of melatonin signaling dysfunction in adolescent idiopathic scoliosis. Clin Orthop Relat Res. 2007, 462:45-52), were cultured at 37° C./5% CO2 in MEM supplemented with 10% fetal bovine serum (FBS) and 100 μg/mL streptomycin. Prior to the experiment, cells were seeded into the CELLKEY™ label-free cellular analysis system standard 96-well plates at a density of 5×10^4/well and grown for 24 h and incubated in standard conditions (37° C./5% CO2). In some plates, Pertussis toxin (100 ng/mL, Sigma, Oakville, ON, Canada) treatment was performed 16 h before the CDS assay. Following overnight incubation, plates were placed onto the CELLKEY™ label-free cellular analysis system and growth medium was exchanged to assay buffer (Hanks, Balanced Salt Solution containing 20 mM HEPES and 0.1% BSA) before starting the experiment. Cells were then allowed to equilibrate at room temperature for 30 min. Pre-addition measurements were made for 5 min to obtain a baseline reading. […] The quick update rate (2 s.) of the CELLKEY™ label-free cellular analysis system allows detection of these immediate changes in impedance. Impedance measurements were collected for 10 min to 15 min at 28° C. after ligand addition to monitor cellular responses to ligand interaction and to generate CELLKEY™ label-free cellular analysis system response profiles that are characteristic of the signaling mechanisms used.
The response induced by the various ligands to their receptors was measured by cellular dielectric spectroscopy (CDS) using the CELLKEY™ label-free cellular analysis technology. (MDS Sciex, San Francisco, Calif., USA). The CELLKEY™ label-free cellular analysis system integrates a proprietary impedance measurement system, custom 96-well microliter plate, onboard 96-well fluidics, and environment control and custom acquisition and analysis software in a full solution package (MDS Sciex) that is compatible with commercially available robotic platforms. Small voltage at 24 frequencies, from 1 KHz to 10 MHz, is applied to a monolayer of cells settled in a 96-well microplate containing electrodes at the bottom, and the resultant current is measured at an update rate of 2 s. […] Onboard fluid additions and exchanges are handled by 96-well head fluid delivery device with a range of 5-500 μL. In addition to the cell plate location, the CELLKEY™ label-free cellular analysis system includes two additional stations for 96- or 384-well compound plates. All aspects of assay set up, execution, and data acquisition and analysis are controlled by CELLKEY™ label-free cellular analysis software.
The minimal (min) and maximal (max) values represent the mean of three independent measurements performed in duplicate (six values in total) for a given patient/control subject. […] Duplicates (n1 and n2) of three independent experiments are presented.

[1] = osteoblasts of AIS#1020 (Group 3) relative to CTR#60
[2] = osteoblasts of AIS#1020 (Group 3)
[3] = osteoblasts of AIS#1198 (Group 3 in Table II) relative to CTR#69
[4] = osteoblasts of AIS#1198 (Group 3 in Table II)
[5] = osteoblasts of AIS#1385 (Group 2) relative to CTR#69
[6] = osteoblasts of AIS#1385 (Group 2)
[7] = osteoblasts of AIS#1468 (Group 3) relative to CTR#61
[8] = osteoblasts of AIS#1468 (Group 3)
[9] = osteoblasts of AIS#1474 (Group 1) relative to CTR#60
[10] = osteoblasts of AIS#1474 (Group 1)
[11] = osteoblasts of AIS#1488 (Group 1) relative to CTR#69
[12] = osteoblasts of AIS#1488 (Group 1)
[13] = osteoblasts of AIS#1513 (Group 3) relative to CTR#61
[14] = osteoblasts of AIS#1513 (Group 3)
[15] = osteoblasts of AIS#1550 (Group 2) relative to CTR#60
[16] = osteoblasts of AIS#1550 (Group 2)

SMILES	% of control [1]	dZiec value [2]	% of control [3]	dZiec value [4]	% of control [5]	dZiec value [6]	% of control [7]	dZiec value [8]	% of control [9]	dZiec value [10]	% of control [11]	dZiec value [12]	% of control [13]	dZiec value [14]	% of control [15]	dZiec value [16]	dZiec value (osteoblasts of control CTR#60)	dZiec value (osteoblasts of control CTR#61)	dZiec value (osteoblasts of control CTR#69)	Absolute dZiec, control value of max diff. (maximal control value)	further results
O=C(NC1CCCCC1)c1cn(CCN2CCOCC2)c2cc(Cl)ccc2c1=O [CB65, N-Cyclohexyl-7-chloro-1-[2-(4-morpholinyl)ethyl]quinolin-4(1H)-one-3-carboxamide]	43.1% and 47.5% and 45.6% and 43.5% and 46.2%	61.81 and 73.81 and 74.95 and 82.95 and 69.38 and 77.38	51.5% and 55.2% and 57.8% and 59.7% and 55.1% and 57.3%	72.90 and 84.90 and 94.57 and 102.57 and 84.73 and 92.73	46.7% and 50.9% and 51.8% and 54.1% and 49.8% and 52.3%	66.15 and 78.15 and 84.86 and 92.86 and 76.50 and 84.50	57.0% and 60.3% and 64.0% and 65.6% and 61.0% and 62.9%	82.16 and 94.16 and 107.91 and 115.91 and 96.04 and 104.04	25.3% and 24.7% and 26.9% and 24.6% and 23.5% and 27.2%	36.30 and 38.30 and 46.79 and 44.79 and 37.55 and 45.55	29.2% and 28.2% and 33.2% and 30.5% and 28.5% and 32.1%	41.30 and 43.30 and 54.43 and 52.43 and 43.87 and 51.87	74.8% and 76.7% and 76.6% and 77.6% and 75.9% and 77.1%	107.73 and 119.73 and 129.10 and 137.10 and 119.41 and 127.41	38.5% and 36.8% and 38.3% and 35.5% and 35.6% and 38.7%	55.13 and 57.13 and 66.49 and 64.49 and 56.81 and 64.81	143.28/— and 155.28/— and 173.77/— and 181.77/— and 159.53/— and 167.53/—	144.08/— and 156.08/— and 168.59/— and 176.59/— and 157.34/— and 165.34/—	141.68/— and 153.68/— and 163.73/— and 171.73/— and 153.70/— and 161.70/—	169	% of control (osteoblasts of AIS#1549 (Group 1) relative to CTR#61): 25.3% and 18.2% and 19.1% and 22.8% and 19.3% and 23.2%; dZiec value (osteoblasts of AIS#1549 (Group 1)): 36.48 and 28.48 and 32.23 and 40.23 and 30.36 and 38.36; Absolute dZiec, control value of min diff. (minimal control value): 138; Absolute dZiec, Group 1, max diff. (group value): 34; Absolute dZiec, Group 1, min diff. (group value): 47; % of control signal, Group 1, max diff.: 20%; % of control signal, Group 1, min diff.: 34%; Absolute dZiec, Group 2, max diff. (group value): 60; Absolute dZiec, Group 2, min diff. (group value): 88; % of control signal, Group 2, max diff.: 36%; % of control signal, Group 2, min diff.: 64%; Absolute dZiec, Group 3, max diff. (group value): 100; Absolute dZiec, Group 3, min diff. (group value): 123; % of control signal, Group 3, max diff.: 55%; % of control signal, Group 3, min diff.: 89%
CNC(=O)[C@H]1O[C@@H](n2cnc3c(NCc4cccc(I)c4)ncnc32)[C@H](O)[C@@H]1O [IB-meca, 1-Deoxy-1-[6-[[(3-iodophenyl)methyl]amino]-9H-purin-9-yl]-N-methyl-β-D-ribofuranuronamide]	50.1% and 47.6% and 50.6% and 47.2% and 47.5% and 50.0%	74.19 and 76.19 and 87.32 and 85.32 and 76.76 and 84.76	41.1% and 45.4% and 47.8% and 50.0% and 45.1% and 47.6%	63.58 and 75.58 and 85.63 and 93.63 and 75.61 and 83.61	47.6% and 45.3% and 47.5% and 44.4% and 44.9% and 47.4%	73.49 and 75.49 and 85.15 and 83.15 and 75.32 and 83.32	77.6% and 79.5% and 78.4% and 78.2% and 79.4%	98.77 and 110.77 and 121.90 and 129.90 and 111.34 and 119.34	21.1% and 18.9% and 21.2% and 20.8% and 18.5% and 22.4%	31.25 and 30.25 and 36.61 and 37.61 and 29.93 and 37.93	25.5% and 24.8% and 26.8% and 24.5% and 23.6% and 27.1%	39.34 and 41.34 and 47.91 and 45.91 and 39.63 and 47.63	61.6% and 64.9% and 67.0% and 68.6% and 64.8% and 66.7%	78.36 and 90.36 and 104.12 and 112.12 and 92.24 and 100.24	44.2% and 42.1% and 47.0% and 43.8% and 42.9% and 45.6%	65.47 and 67.47 and 81.23 and 79.23 and 69.35 and 77.35	148.22/— and 160.22/— and 172.73/— and 180.73/— and 161.48/— and 169.48/—	127.27/— and 139.27/— and 155.44/— and 163.44/— and 142.36/— and 150.36/—	154.52/— and 166.52/— and 179.10/— and 187.10/— and 167.81/— and 175.81/—	172	Absolute dZiec, control value of min diff. (minimal control value): 132; Absolute dZiec, Group 1, max diff. (group value): 20; Absolute dZiec, Group 1, min diff. (group value): 43; % of control signal, Group 1, max diff.: 12%; % of control signal, Group 1, min diff.: 33%; Absolute dZiec, Group 2, max diff. (group value): 73; Absolute dZiec, Group 2, min diff. (group value): 80; % of control signal, Group 2, max diff.: 42%; % of control signal, Group 2, min diff.: 61%; Absolute dZiec, Group 3, max diff. (group value): 98; Absolute dZiec, Group 3, min diff. (group value): 115; % of control signal, Group 3, max diff.: 55%; % of control signal, Group 3, min diff.: 87%
